Structures are written as SMILES.

Assay [1] deals with AXL (Homo sapiens (Human), UniProt P30530). The assay is described as follows: AXL autophosphorylation ELISA in A-172 cells. Type of assay: cell-based. Conditions: cellular, Gas6 stimulated. An outline of the steps: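 Serum-starved (24 h) A-172 glioblastoma cells pretreated 1 h with compounds (8-point curve, 0.3% DMSO), then stimulated 15 min with 1 μg/mL Gas6. Lysate phospho-AXL measured by sandwich ELISA against a phospho-AXL standard; IC50 from 4-parameter logistic fit between DMSO and reference-inhibitor controls.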

The target in assay [2] is Met (Homo sapiens (Human), UniProt P08581). The experiment in a line: Met autophosphorylation ELISA in PC-3 cells. Type of assay: cell-based. Conditions: cellular, HGF stimulated, read-out: c-Met IC50. An outline of the steps:
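PC-3 cells serum-starved 3 h, treated 1 h with 8-point compound series (0.3% DMSO), then stimulated with 100 ng/mL human HGF for 10 min. Lysate phospho-Met (panTyr) measured by sandwich ELISA; IC50 from 4-parameter logistic fit against DMSO and reference-inhibitor controls.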
Background: ELISA stands for enzyme-linked immunosorbent assay.

Assay [3] has as its target Human Axl (residues H473-A894 with Q764R) (Homo sapiens (Human), UniProt P30530, Q764R). The assay is described as follows: Human AXL kinase assay (33P radiometric, KinaseProfiler). It counts as biochemical. Conditions: 10 μM ATP.
Assay [4] deals with Human Mer (residues R557-E882 with H628Q and R794A) (Homo sapiens (Human), UniProt Q12866). The experiment in a line: Human Mer kinase assay (33P radiometric, KinaseProfiler). Type of assay: biochemical. Conditions: 10 μM ATP.
Chain of Human Mer (residues R557-E882 with H628Q and R794A) (Q12866 557-882, stated change not applied): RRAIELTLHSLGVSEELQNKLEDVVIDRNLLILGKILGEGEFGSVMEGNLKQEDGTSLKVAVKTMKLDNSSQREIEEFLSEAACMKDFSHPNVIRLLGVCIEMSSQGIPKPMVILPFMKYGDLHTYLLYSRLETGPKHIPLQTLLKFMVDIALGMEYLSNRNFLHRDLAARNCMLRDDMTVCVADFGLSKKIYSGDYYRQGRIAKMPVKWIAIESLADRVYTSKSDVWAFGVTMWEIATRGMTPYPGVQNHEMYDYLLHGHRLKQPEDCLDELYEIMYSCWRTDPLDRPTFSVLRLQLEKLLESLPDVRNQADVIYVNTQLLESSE

Chain of Met (P08581 25-1390): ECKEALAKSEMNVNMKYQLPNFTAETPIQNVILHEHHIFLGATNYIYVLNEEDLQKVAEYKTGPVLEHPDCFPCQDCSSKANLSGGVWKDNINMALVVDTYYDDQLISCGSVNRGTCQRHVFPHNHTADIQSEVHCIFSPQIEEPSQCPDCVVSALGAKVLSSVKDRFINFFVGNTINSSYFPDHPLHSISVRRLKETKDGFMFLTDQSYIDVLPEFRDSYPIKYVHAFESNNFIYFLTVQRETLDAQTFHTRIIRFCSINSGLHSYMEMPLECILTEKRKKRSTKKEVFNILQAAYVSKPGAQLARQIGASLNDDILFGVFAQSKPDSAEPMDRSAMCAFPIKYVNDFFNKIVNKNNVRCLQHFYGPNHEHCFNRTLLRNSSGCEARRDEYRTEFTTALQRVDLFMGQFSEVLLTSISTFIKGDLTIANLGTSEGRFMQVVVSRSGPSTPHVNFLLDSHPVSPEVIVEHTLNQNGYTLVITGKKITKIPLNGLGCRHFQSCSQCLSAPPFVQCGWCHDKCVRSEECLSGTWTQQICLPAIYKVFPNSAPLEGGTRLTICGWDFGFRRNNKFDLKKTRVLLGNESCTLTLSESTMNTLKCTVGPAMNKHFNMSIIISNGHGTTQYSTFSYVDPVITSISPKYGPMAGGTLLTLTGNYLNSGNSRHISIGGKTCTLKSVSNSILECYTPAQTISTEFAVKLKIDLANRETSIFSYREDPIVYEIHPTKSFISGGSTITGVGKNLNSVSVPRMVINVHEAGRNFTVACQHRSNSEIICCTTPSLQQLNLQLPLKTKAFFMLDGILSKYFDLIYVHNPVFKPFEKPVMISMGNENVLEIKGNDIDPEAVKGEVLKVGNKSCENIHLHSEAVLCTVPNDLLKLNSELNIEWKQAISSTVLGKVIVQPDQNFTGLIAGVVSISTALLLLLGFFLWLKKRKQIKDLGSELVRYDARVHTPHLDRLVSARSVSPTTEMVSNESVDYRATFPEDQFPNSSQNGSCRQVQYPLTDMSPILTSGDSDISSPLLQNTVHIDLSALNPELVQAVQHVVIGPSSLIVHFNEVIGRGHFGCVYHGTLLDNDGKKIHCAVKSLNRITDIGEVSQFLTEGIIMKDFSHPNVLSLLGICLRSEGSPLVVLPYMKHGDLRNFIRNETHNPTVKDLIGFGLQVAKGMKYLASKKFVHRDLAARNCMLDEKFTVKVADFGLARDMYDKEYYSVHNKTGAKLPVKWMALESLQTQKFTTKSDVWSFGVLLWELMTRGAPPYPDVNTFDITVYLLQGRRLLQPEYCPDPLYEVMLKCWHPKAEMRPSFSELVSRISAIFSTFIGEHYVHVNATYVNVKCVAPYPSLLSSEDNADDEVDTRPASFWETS
Chain of AXL (P30530 26-894): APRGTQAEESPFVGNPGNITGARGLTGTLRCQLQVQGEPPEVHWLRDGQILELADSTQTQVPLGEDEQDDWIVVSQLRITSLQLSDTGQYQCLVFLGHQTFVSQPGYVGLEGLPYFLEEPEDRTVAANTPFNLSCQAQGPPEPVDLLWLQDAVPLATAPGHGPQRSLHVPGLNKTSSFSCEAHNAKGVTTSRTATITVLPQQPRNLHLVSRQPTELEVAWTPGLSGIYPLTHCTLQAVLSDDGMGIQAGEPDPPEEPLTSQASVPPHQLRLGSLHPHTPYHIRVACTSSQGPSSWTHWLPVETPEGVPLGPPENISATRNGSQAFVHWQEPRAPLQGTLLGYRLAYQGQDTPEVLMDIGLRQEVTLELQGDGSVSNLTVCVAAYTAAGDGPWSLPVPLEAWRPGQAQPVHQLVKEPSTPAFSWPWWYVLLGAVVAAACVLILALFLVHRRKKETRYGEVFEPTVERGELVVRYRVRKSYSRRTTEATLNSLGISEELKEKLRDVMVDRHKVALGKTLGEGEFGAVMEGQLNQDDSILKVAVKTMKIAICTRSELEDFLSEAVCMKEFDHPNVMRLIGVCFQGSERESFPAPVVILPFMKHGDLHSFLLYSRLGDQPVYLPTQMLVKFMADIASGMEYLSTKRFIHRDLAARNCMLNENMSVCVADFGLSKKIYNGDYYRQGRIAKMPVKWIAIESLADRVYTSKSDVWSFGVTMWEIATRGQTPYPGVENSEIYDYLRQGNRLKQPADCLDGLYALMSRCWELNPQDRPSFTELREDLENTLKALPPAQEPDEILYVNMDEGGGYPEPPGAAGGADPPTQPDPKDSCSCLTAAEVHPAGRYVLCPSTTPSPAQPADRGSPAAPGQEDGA
Chain of Human Axl (residues H473-A894 with Q764R) (P30530 473-894 Q764R): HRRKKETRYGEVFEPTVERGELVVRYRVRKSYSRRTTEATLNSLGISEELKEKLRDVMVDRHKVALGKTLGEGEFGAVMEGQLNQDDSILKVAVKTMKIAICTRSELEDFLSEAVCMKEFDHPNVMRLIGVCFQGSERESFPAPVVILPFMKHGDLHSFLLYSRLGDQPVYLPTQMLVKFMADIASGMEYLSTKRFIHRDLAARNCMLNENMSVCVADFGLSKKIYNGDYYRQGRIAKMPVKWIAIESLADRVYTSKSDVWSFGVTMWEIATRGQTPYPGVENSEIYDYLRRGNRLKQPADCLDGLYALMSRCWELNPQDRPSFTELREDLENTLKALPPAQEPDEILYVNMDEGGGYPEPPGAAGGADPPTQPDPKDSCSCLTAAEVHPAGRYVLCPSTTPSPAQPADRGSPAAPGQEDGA

For the compound `COc1cc2nccc(Oc3ccc(NC(=O)C4(C(=O)Nc5ccc(F)cc5)CC4)cc3)c2cc1S(C)(=O)=O` [Compound 210, 1-N′-(4-Fluorophenyl)-1-N-[4-(7-methoxy-6-methylsulfonylquinolin-4-yl)oxyphenyl]cyclopropane-1,1-dicarboxamide], the IC50 (as a rule, the midpoint of a concentration-inhibition curve) in assay [1] was 10 to 100 nM; in assay [2] it was 10 to 100 nM; in assay [3], at most 10 nM; in assay [4], at most 10 nM.
Take `COc1cc2nccc(Oc3ccc(NC(=O)C4(C(=O)Nc5ccc(F)cc5)CC4)cc3)c2cc1-c1nnco1` [Compound 220, 1-N′-(4-Fluorophenyl)-1-N-[4-[7-methoxy-6-(1,3,4-oxadiazol-2-yl)quinolin-4-yl]oxyphenyl]cyclopropane-1,1-dicarboxamide]: the IC50 in assay [1] was at most 10 nM; in assay [2], 10 to 100 nM; in assay [3], at most 10 nM; in assay [4] it was at most 10 nM.

Values taken from patent US11542259B2, “Compounds for the treatment of kinase-dependent disorders” (Exelixis, Inc., priority 2018, dated 2023).
